Experimental data: patent publication US20090111798A1, “5,6-DIHYDRO-1H-PYRIDIN-2-ONE COMPOUNDS” (priority 2006, published 2009)

Molecular target: NS5B polymerase (Hepatitis C virus genotype 1b, UniProt P26663)
Assay: biochemical
Conditions: NS5B polymerase inhibition; 20 nM enzyme, 75 min at 28° C.
Procedure: Compounds were tested for HCV polymerase inhibition. Assays were performed in a 96-well streptavidin-coated FlashPlate using 20 nM enzyme, 0.5μ Ci of [α-^33P]GTP, 0.6 μM GTP, and 250 nM 5′biotinylated oligo (rG13)/poly rC in 20 mM Tris-HCl, pH 7.5, 5 mM MgCl2, 5 mM dithiothreitol, 0.1 g/L bovine serum albumin, and 100 U/mL RNAse inhibitor. The reaction was stopped by aspiration after 75 min at 28° C. and the plate was washed several times. After washing and drying the plate, incorporated radioactivity was counted using a Microbeta scintillation counter. IC50 values were calculated relative to the uninhibited control and inhibition data were fitted to a 4-parameter IC50 equation.

Sequence of NS5B polymerase (P26663 2420-3010): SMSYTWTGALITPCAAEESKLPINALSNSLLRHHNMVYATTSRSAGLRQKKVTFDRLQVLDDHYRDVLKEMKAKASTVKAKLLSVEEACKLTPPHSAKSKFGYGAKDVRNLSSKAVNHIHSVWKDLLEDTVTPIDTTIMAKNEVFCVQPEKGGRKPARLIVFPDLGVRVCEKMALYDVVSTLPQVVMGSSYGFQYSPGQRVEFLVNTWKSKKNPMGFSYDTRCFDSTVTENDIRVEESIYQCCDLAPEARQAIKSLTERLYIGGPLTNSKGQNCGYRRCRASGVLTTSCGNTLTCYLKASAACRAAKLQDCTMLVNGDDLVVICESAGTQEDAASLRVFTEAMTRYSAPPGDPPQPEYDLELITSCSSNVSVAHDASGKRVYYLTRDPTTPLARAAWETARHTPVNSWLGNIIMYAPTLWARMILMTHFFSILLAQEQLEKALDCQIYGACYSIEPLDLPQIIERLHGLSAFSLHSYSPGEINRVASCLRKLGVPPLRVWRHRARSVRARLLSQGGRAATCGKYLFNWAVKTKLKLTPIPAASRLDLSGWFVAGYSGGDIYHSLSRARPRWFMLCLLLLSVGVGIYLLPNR

Compound | IC50 [nM]
CS(=O)(=O)Nc1ccc2c(c1)S(=O)(=O)N=C(C1=C(O)C3CCCCCC3N(Cc3ccc(F)cc3)C1=O)N2 (stereo not shown) [Example 2, N-{3-[1-(4-Fluoro-benzyl)-4-hydroxy-2-oxo-2,4-a,5,6,7,8,9,9a-octahydro-1H-cyclohepta[b]pyridin-3-yl]-1,1-dioxo-1,4-dihydro-1λ^6-benzo[1,2,4]thiadiazin-7-yl}-methanesulfonamide] | 20 to 100
CS(=O)(=O)Nc1ccc2c(c1)S(=O)(=O)N=C(C1=C(O)C3CCCCCCC3N(Cc3ccc(F)cc3)C1=O)N2 (stereo not shown) [Example 3, N-{3-[1-(4-Fluoro-benzyl)-4-hydroxy-2-oxo-1,2,4a,5,6,7,8,9,10,10a-decahydro-cycloocta[b]pyridin-3-yl]-1,1-dioxo-1,4-dihydro-1λ^6-benzo[1,2,4]thiadiazin-7-yl]-methanesulfonamide] | 100 to 1000
CS(=O)(=O)Nc1ccc2c(c1)S(=O)(=O)N=C(C1=C(O)[C@@H]3CCC[C@@H]3N(Cc3ccc(F)c(Cl)c3)C1=O)N2 [Example 11, (4aR,7aS)—N-{3-[1-(3-Chloro-4-fluoro-benzyl)-4-hydroxy-2-oxo-2,4-a,5,6,7,7a-hexahydro-1H-[1]pyrindin-3-yl]-1,1-dioxo-1,4-dihydro-1λ^6-benzo[1,2,4]thiadiazin-7-yl}-methanesulfonamide] | < 20
CS(=O)(=O)Nc1ccc2c(c1)S(=O)(=O)N=C(C1=C(O)[C@@H]3CCC[C@@H]3N(Cc3ccc(F)cc3)C1=O)N2 [Example 12, (4aR,7aS)—N-{3-[1-(4-Fluoro-benzyl)-4-hydroxy-2-oxo-2,4-a,5,6,7,7a-hexahydro-1H-[1]pyrindin-3-yl]-1,1-dioxo-1,4-dihydro-1λ^6-benzo[1,2,4]thiadiazin-7-yl}-methanesulfonamide] | < 20
CS(=O)(=O)Nc1ccc2c(c1)S(=O)(=O)N=C(C1=C(O)[C@@H]3CCCC[C@@H]3N(Cc3ccc(F)cc3)C1=O)N2 [Example 13, (4aR,8aS)—N-{3-[1-(4-Fluoro-benzyl)-4-hydroxy-2-oxo-1,2,4a,5,6,7,8,8a-octahydro-quinolin-3-yl]-1,1-dioxo-1,4-dihydro-1λ^6-benzo[1,2,4]thiadiazin-7-yl}-methanesulfonamide] | 20 to 100
CS(=O)(=O)Nc1ccc2c(c1)S(=O)(=O)N=C(C1=C(O)[C@@H]3CCC[C@@H]3N(Cc3ccc(C(F)(F)F)cc3)C1=O)N2 [Example 14, (4aR,7aS)—N-{3-[4-Hydroxy-2-oxo-1-(4-trifluoromethyl-benzyl)-2,4-a,5,6,7,7a-hexahydro-1H-[1]pyrindin-3-yl]-1,1-dioxo-1,4-dihydro-1λ^6 benzo[1,2,4]thiadiazin-7-yl}-methanesulfonamide] | 100 to 1000
CS(=O)(=O)Nc1ccc2c(c1)S(=O)(=O)N=C(C1=C(O)[C@@H]3CCC[C@@H]3N(Cc3cccc(C(F)(F)F)c3)C1=O)N2 [Example 15, (4aR,7aS)—N-{3-[4-Hydroxy-2-oxo-1-(3-trifluoromethyl-benzyl)-2,4-a,5,6,7,7a-hexahydro-1H-[1]pyrindin-3-yl]-1,1-dioxo-1,4-dihydro-1λ^6-benzo[1,2,4]thiadiazin-7-yl}-methanesulfonamide] | 100 to 1000
CS(=O)(=O)Nc1ccc2c(c1)S(=O)(=O)N=C(C1=C(O)C3CCC=CC3N(Cc3ccc(F)cc3)C1=O)N2 (stereo not shown) [Example 16, N-{3-[1-(4-Fluoro-benzyl)-4-hydroxy-2-oxo-1,2,4a,5,6,8a-hexahydro-quinolin-3-yl]-1,1-dioxo-1,4-dihydro-1λ^6-benzo[1,2,4]thiadiazin-7-yl}-methanesulfonamide] | < 20
CC(C)CCN1C(=O)C(C2=NS(=O)(=O)c3cc(NS(C)(=O)=O)ccc3N2)=C(O)C2CCCCC21 (stereo not shown) [Example 20, N-{3-[2-(3-Methylbutyl)-5-hydroxy-3-oxo-2-aza-bicyclo[4.4.0]dec-4-en-4-yl]-1,1-dioxo-1,4-dihydro-1λ^6-benzo[1,2,4]thiadiazin-7-yl}-methanesulfonamide] | 20 to 100
CC(C)(C)CCN1C(=O)C(C2=NS(=O)(=O)c3cc(NS(C)(=O)=O)ccc3N2)=C(O)C2CCCCC21 (stereo not shown) [Example 21, N-{3-[2-(3,3-Dimethylbutyl)-5-hydroxy-3-oxo-2-aza-bicyclo[4.4.0]dec-4-en-4-yl]-1,1-dioxo-1,4-dihydro-1λ^6-benzo[1,2,4]thiadiazin-7-yl}-methanesulfonamide] | 20 to 100
Cc1cc(CN2C(=O)C(C3=NS(=O)(=O)c4cc(NS(C)(=O)=O)ccc4N3)=C(O)[C@@H]3CCC[C@@H]32)ccc1F [Example 22, (4aR,7aS)—N-{3-[1-(4-fluoro-3-methyl-benzyl)-4-hydroxy-2-oxo-2,4-a,5,6,7,7a-hexahydro-1H-[1]pyrindin-3-yl]-1,1-dioxo-1,4-dihydro-1λ^6-benzo[1,2,4]thiadiazin-7-yl}-methanesulfonamide] | < 20
Cc1cccc(CN2C(=O)C(C3=NS(=O)(=O)c4cc(NS(C)(=O)=O)ccc4N3)=C(O)[C@@H]3CCC[C@@H]32)c1 [Example 23, (4aR,7aS)—N-{3-[4-Hydroxy-1-(3-methyl-benzyl)-2-oxo-2,4-a,5,6,7,7a-hexahydro-1H-[1]pyrindin-3-yl]-1,1-dioxo-1,4-dihydro-1λ^6-benzo[1,2,4]thiadiazin-7-yl}-methanesulfonamide] | < 20

Further lines, results first:

IC50 [nM] | Compound
20 to 100 | CS(=O)(=O)Nc1ccc2c(c1)S(=O)(=O)N=C(C1=C(O)[C@@H]3CCC[C@@H]3N(CC3CCC3)C1=O)N2 (relative stereo) [Example 47, cis-N-[3-(1-Cyclobutylmethyl-4-hydroxy-2-oxo-2,4-a,5,6,7,7a-hexahydro-1H-[1]pyrindin-3-yl)-1,1-dioxo-1,4-dihydro-1λ^6-benzo[1,2,4]thiadiazin-7-yl]-methanesulfonamide]
1000 to 100000 | CS(=O)(=O)Nc1ccc2c(c1)S(=O)(=O)N=C(C1=C(O)[C@@H]3CCC[C@@H]3N(c3ccccc3)C1=O)N2 (relative stereo) [Example 48, cis-N-[3-(4-Hydroxy-2-oxo-1-phenyl-2,4-a,5,6,7,7a-hexahydro-1H-[1]pyrindin-3-yl)-1,1-dioxo-1,4-dihydro-1λ^6-benzo[1,2,4]thiadiazin-7-yl]-methanesulfonamide]
1000 to 100000 | CN1C(=O)C(C2=NS(=O)(=O)c3cc(NS(C)(=O)=O)ccc3N2)=C(O)[C@@H]2CCC[C@@H]21 (relative stereo) [Example 53, cis-N-[3-(4-Hydroxy-1-methyl-2-oxo-2,4a,5,6,7,7a-hexahydro-1H-[1]pyrindin-3-yl)-1,1-dioxo-1,4-dihydro-1λ^6-benzo[1,2,4]thiadiazin-7-yl]-methanesulfonamide]
100 to 1000 | CCN1C(=O)C(C2=NS(=O)(=O)c3cc(NS(C)(=O)=O)ccc3N2)=C(O)[C@@H]2CCC[C@@H]21 (relative stereo) [Example 54, cis-N-[3-(1-Ethyl-4-hydroxy-2-oxo-2,4a,5,6,7,7a-hexahydro-1H-[1]pyrindin-3-yl)-1,1-dioxo-1,4-dihydro-1λ^6-benzo[1,2,4]thiadiazin-7-yl]-methanesulfonamide]
100 to 1000 | CC(C)N1C(=O)C(C2=NS(=O)(=O)c3cc(NS(C)(=O)=O)ccc3N2)=C(O)[C@@H]2CCC[C@@H]21 (relative stereo) [Example 55, cis-N-[3-(4-Hydroxy-1-isopropyl-2-oxo-2,4a,5,6,7,7a-hexahydro-1H-[1]pyrindin-3-yl)-1,1-dioxo-1,4-dihydro-1λ^6-benzo[1,2,4]thiadiazin-7-yl]-methanesulfonamide]
< 20 | CS(=O)(=O)Nc1ccc2c(c1)S(=O)(=O)N=C(C1=C(O)[C@@H]3CCC[C@@H]3N(Cc3ccc(Cl)cc3)C1=O)N2 (relative stereo) [Example 56, cis-N-{3-[1-(4-Chloro-benzyl)-4-hydroxy-2-oxo-2,4a,5,6,7,7a-hexahydro-1H-[1]pyrindin-3-yl]-1,1-dioxo-1,4-dihydro-1λ^6-benzo[1,2,4]thiadiazin-7-yl}-methanesulfonamide]
< 20 | CS(=O)(=O)Nc1ccc2c(c1)S(=O)(=O)C=C(C1=C(O)[C@@H]3CCCCC[C@@H]3N(Cc3ccc(F)cc3)C1=O)N2 (relative stereo) [Example 57, cis-N-{3-[1-(4-Fluoro-benzyl)-4-hydroxy-2-oxo-2,4a,5,6,7,8,9,9a-octahydro-1H-cyclohepta[b]pyridin-3-yl]-1,1-dioxo-1,4-dihydro-1λ^6-benzo[1,4]thiazin-7-yl}-methanesulfonamide]
20 to 100 | CS(=O)(=O)Nc1ccc2c(c1)S(=O)(=O)N=C(C1=C(O)[C@H]3CCC[C@H]3N(Cc3ccc(F)cc3)C1=O)N2 [Example 26, (4aS,7aR)—N-{3-[1-(4-Fluoro-benzyl)-4-hydroxy-2-oxo-2,4-a,5,6,7,7a-hexahydro-1H-[1]pyrindin-3-yl]-1,1-dioxo-1,4-dihydro-1λ^6-benzo[1,2,4]thiadiazin-7-yl}-methanesulfonamide]
< 20 | CS(=O)(=O)Nc1ccc2c(c1)S(=O)(=O)N=C(C1=C(O)[C@@H]3CCC[C@@H]3N(Cc3ccc(F)c(F)c3)C1=O)N2 [Example 27, (4aR,7aS)—N-{3-[1-(3,4-Difluoro-benzyl)-4-hydroxy-2-oxo-2,4-a,5,6,7,7a-hexahydro-1H-[1]pyrindin-3-yl]-1,1-dioxo-1,4-dihydro-1λ^6-benzo[1,2,4]thiadiazin-7-yl]-methanesulfonamide]
< 20 | CC(C)CCN1C(=O)C(C2=NS(=O)(=O)c3cc(NS(C)(=O)=O)ccc3N2)=C(O)[C@@H]2CCC[C@@H]21 [Example 28, (4aR,7aS)—N-{3-[4-Hydroxy-1-(3-methyl-butyl)-2-oxo-2,4-a,5,6,7,7a-hexahydro-1H-[1]pyrindin-3-yl]-1,1-dioxo-1,4-dihydro-1λ^6-benzo[1,2,4]thiadiazin-7-yl]-methanesulfonamide]
